The values that follow come from PMC7587356, “High-Throughput Screening for Inhibitors of the SARS-CoV-2 Protease Using a FRET-Biosensor” (Molecules, 2020).

The assay concerns the target SARS-CoV-2 3CLpro (Severe acute respiratory syndrome coronavirus 2, UniProt P0DTD1). The assay is described as follows: biochemical. The format is biochemical. Details: Replicate_1 / Replicate_2 / mean / mean (LOPAC_screen_w_protease): unit not given here. To be noted: for inhibition at 5 µM: 4 h.
Setting [1] is: sheet LOPAC_screen_w_protease, LOPAC1280 primary screen at 5 µM, with protease, mean of the two replicates.
The mark [2] stands for this setting: sheet LOPAC_screen_w_protease, LOPAC1280 primary screen at 5 µM, with protease, replicate 1.
The mark [3] stands for this setting: sheet LOPAC_screen_w_protease, LOPAC1280 primary screen at 5 µM, with protease, replicate 2.
The mark [4] stands for this setting: sheet LOPAC_screen_w_protease, LOPAC1280 primary screen with protease, 5 µM compound, mean of the two replicates, read-out: mean.
[5] abbreviates: sheet LOPAC_screen_w_protease, LOPAC1280 primary screen with protease, 5 µM compound, replicate 1, read-out: Replicate_1.
[6] abbreviates: sheet LOPAC_screen_w_protease, LOPAC1280 primary screen with protease, 5 µM compound, replicate 2, read-out: Replicate_2.
Where [7] appears, read: sheet LOPAC_screen_w_protease, primary screen with protease, mean of two replicates.
[8] abbreviates: sheet LOPAC_screen_w_protease, primary screen with protease, replicate 1.
The mark [9] stands for this setting: sheet LOPAC_screen_w_protease, primary screen with protease, replicate 2.
Where [10] appears, read: sheet LOPAC_screen_w_protease, LOPAC1280 primary screen with protease, 5 µM compound, mean of the two replicates.
[11] abbreviates: sheet LOPAC_screen_w_protease, LOPAC1280 primary screen with protease, 5 µM compound, replicate 1.
[12] abbreviates: sheet LOPAC_screen_w_protease, LOPAC1280 primary screen with protease, 5 µM compound, replicate 2.
Where [13] appears, read: LOPAC1280 primary screen with protease, 5 µM compound, mean of the two replicates.
Setting [14] is: LOPAC1280 primary screen with protease, 5 µM compound, replicate 1.
[15] abbreviates: LOPAC1280 primary screen with protease, 5 µM compound, replicate 2.
The mark [16] stands for this setting: LOPAC1280 primary screen with protease, 5 µM compound, replicate 1, read-out: Replicate_1 (LOPAC_screen_w_protease).
The mark [17] stands for this setting: LOPAC1280 primary screen with protease, 5 µM compound, replicate 2, read-out: Replicate_2 (LOPAC_screen_w_protease).
[18] abbreviates: LOPAC1280 primary screen with protease, 5 µM compound, mean of two replicates.
Where [19] appears, read: sheet LOPAC_screen_w_protease, LOPAC1280 at 5 µM, mean of two replicates.
[20] abbreviates: sheet LOPAC_screen_w_protease, LOPAC1280 at 5 µM, replicate 1.
The mark [21] stands for this setting: sheet LOPAC_screen_w_protease, LOPAC1280 at 5 µM, replicate 2.

Counter-ions that a name gives are not always drawn. Like-named read-outs stand apart in the source and are kept apart here.

Turning to `Cl.NCCCCNS(=O)(=O)c1ccc2c(Cl)cccc2c1`, the mean under setting [1] stood at 0.6799. Under setting [2], this molecule registered a Replicate_1 of 0.88. This molecule showed a Replicate_2 under setting [3] of 0.4798.

On to `Cc1cc(C(C)(C)C)cc(C)c1CC1=NCCN1` [Xylometazoline hydrochloride], for which the inhibition at 5 µM reads like this: (sheet LOPAC_screen_w_protease, LOPAC1280 at 5 µM, mean of two replicates, read-out: mean) 1.12%; (sheet LOPAC_screen_w_protease, LOPAC1280 at 5 µM, replicate 1, read-out: Replicate_1) 0.813%; (sheet LOPAC_screen_w_protease, LOPAC1280 at 5 µM, replicate 2, read-out: Replicate_2) 1.42%.

For the molecule `Cn1cnc2c(NCc3ccccc3)nc(NCCO)nc21` [Olomoucine], the inhibition at 5 µM runs as follows: under setting [4], 4.92%; under setting [5], 3.02%; under setting [6], 6.83%.

`COc1cc(C(O)CO)ccc1OS(=O)(=O)[O-].[K+]` (stereo not shown) [MHPG sulfate potassium]: the mean under setting [1] is 0.6725. For the same molecule, the Replicate_1 under setting [2] is given as 2.348. This molecule registered a Replicate_2 under setting [3] of -1.003.

With `Cc1ccc(O)c(N=Nc2ccccc2)n1` [SIB 1757], the mean under setting [7] was found to be 2.268. The molecule further yielded a Replicate_1 under setting [8] of 3.235. Further, the Replicate_2 under setting [9] worked out at 1.301.

As to `CN1[C@@H]2CC[C@H]1C[C@@H](OC(c1ccccc1)c1ccccc1)C2` [Benztropine mesylate], the inhibition at 5 µM is 3.08% (sheet LOPAC_screen_w_protease, primary screen with protease, compound at 5 µM, mean of two replicates, read-out: mean); 0.913% (sheet LOPAC_screen_w_protease, primary screen with protease, compound at 5 µM, replicate 1, read-out: Replicate_1); 5.26% (sheet LOPAC_screen_w_protease, primary screen with protease, compound at 5 µM, replicate 2, read-out: Replicate_2).

As for `Cc1ccc(S(=O)(=O)N[C@@H](CCCCN)C(=O)CCl)cc1.Cl`, where the note is “sheet LOPAC_screen_w_protease, primary screen at 5 µM, mean of two replicates”, the “mean (LOPAC screen with protease)” value worked out at 20.7427. Also, under “sheet LOPAC_screen_w_protease, primary screen at 5 µM, replicate 1”, the “Replicate_1 (LOPAC screen with protease)” value was 21.9131. Under “sheet LOPAC_screen_w_protease, primary screen at 5 µM, replicate 2”, the “Replicate_2 (LOPAC screen with protease)” value turned out to be 19.5724.

The molecule `CN1CCN(C2Cc3ccccc3Sc3ccc(Cl)cc32)CC1.O=C(O)/C=C\C(=O)O` (racemic) [(±)-Octoclothepin maleate] returned a mean under setting [10] of 4.928. For the same molecule, the Replicate_1 under setting [11] was 3.609. Also, the Replicate_2 under setting [12] is given as 6.247.

On to `CC(=O)NNC(=O)N1Cc2ccccc2Oc2ccc(Cl)cc21` [SC 19220], for which, for the setting “sheet LOPAC_screen_w_protease, primary screen with protease, 5 µM, mean of two replicates”, the mean worked out at 0.1868. Moreover, the Replicate_1 (sheet LOPAC_screen_w_protease, primary screen with protease, 5 µM, replicate 1) is 1.1062. Further, the Replicate_2 (sheet LOPAC_screen_w_protease, primary screen with protease, 5 µM, replicate 2) is -0.7326.

Take `Cc1cn([C@H]2C=C[C@@H](CO)O2)c(=O)[nH]c1=O` [2',3'-didehydro-3'-deoxythymidine]: under setting [13], the “mean (LOPAC_screen_w_protease)” value was found to be 1.906. Moreover, the “Replicate_1 (LOPAC_screen_w_protease)” value under setting [14] turned out to be 2.073. Besides, the “Replicate_2 (LOPAC_screen_w_protease)” value under setting [15] is listed as 1.738.

With `Cc1ccccc1/C=C/C1=NCCN1` [Metrazoline oxalate], the inhibition at 5 µM stood at 2.83% under setting [16] and 0.879% under setting [17]. Also, the “mean (LOPAC_screen_w_protease)” value under setting [13] came out at 1.853.

For `CCCCNc1ccc(C(=O)OCCN(C)C)cc1` [Tetracaine hydrochloride], the inhibition at 5 µM is -0.191% (sheet LOPAC_screen_w_protease, primary screen with protease, 5 µM, mean of two replicates, read-out: mean); 0.225% (sheet LOPAC_screen_w_protease, primary screen with protease, 5 µM, replicate 1, read-out: Replicate_1); -0.607% (sheet LOPAC_screen_w_protease, primary screen with protease, 5 µM, replicate 2, read-out: Replicate_2).

`O=C1c2c(O)cc(O)cc2O[C@H](c2ccc(O)c(O)c2)[C@H]1O` [dihydroquercetin, reference compound]: the “inhibition of 3CLpro in the primary screen” value (5 µM compound, 0.01% Triton X-100, 4 h endpoint, duplicate mean) came to 7.5%.

On to `COc1ccc2c(c1OC)C(=O)OC2C1c2cc3c(cc2CCN1C)OCO3` (single isomer, unassigned; (+)) [(+)-Hydrastine], for which the inhibition at 5 µM is, setting by setting: under setting [16], 2.51%; under setting [17], 0.711%. Moreover, the “mean (LOPAC_screen_w_protease)” value under setting [18] is 1.61.

On to `C=CCn1c(=O)c2c(nc(-c3ccc(S(=O)(=O)O)cc3)n2C)n(C)c1=O`, for which the “mean (LOPAC_screen_w_protease)” value under setting [18] turned out to be 1.718. Further, the “Replicate_1 (LOPAC_screen_w_protease)” value under setting [14] was found to be 2.434. Under setting [15], the “Replicate_2 (LOPAC_screen_w_protease)” value is on record as 1.002.

Turning to `CN(C)c1ccc(O)c2c1C[C@H]1C[C@H]3[C@H](N(C)C)C(O)=C(C(N)=O)C(=O)[C@@]3(O)C(O)=C1C2=O` [Minocycline hydrochloride], the inhibition at 5 µM was found to be 5.31% under setting [4], 4.79% under setting [5] and 5.84% under setting [6].

The molecule `CC(C)(C)c1o[nH]c(=O)c1CC(N)C(=O)O` (stereo not shown) [ATPA] gave a mean under setting [1] of 0.4603. Under setting [2], this molecule had a Replicate_1 of -0.08438. For the same molecule, under setting [3], the Replicate_2 is listed as 1.005.

In the case of `NC/C=C\C(=O)O` [cis-4-Aminocrotonic acid], the mean under setting [7] amounted to 2.546. Besides, the Replicate_1 under setting [8] turned out to be 3.312. For the same molecule, under setting [9], the Replicate_2 is recorded as 1.781.

As for `O=C1Nc2ccccc2/C1=C1/Nc2ccccc2/C1=N\O` [Indirubin-3'-oxime], the “mean (LOPAC_screen_w_protease)” value under setting [18] was determined as 1.392. Further, the “Replicate_1 (LOPAC_screen_w_protease)” value under setting [14] is 2.012. Further, the “Replicate_2 (LOPAC_screen_w_protease)” value under setting [15] stood at 0.7725.

In the case of `O=C(NCCNCC(O)COc1ccc(O)cc1)N1CCOCC1` (stereo not shown) [Xamoterol hemifumarate], the inhibition at 5 µM by setting is: (sheet LOPAC_screen_w_protease, LOPAC1280 primary screen at 5 µM, with protease, mean of the two replicates, read-out: mean) 0.551%; (sheet LOPAC_screen_w_protease, LOPAC1280 primary screen at 5 µM, with protease, replicate 1, read-out: Replicate_1) 1.09%; (sheet LOPAC_screen_w_protease, LOPAC1280 primary screen at 5 µM, with protease, replicate 2, read-out: Replicate_2) 0.0143%.

Under setting [10], `O=c1[nH]c2cc(Cl)c(Cl)cc2[nH]c1=O` [6,7-Dichloroquinoxaline-2,3-dione] yielded a mean of 4.331. Under setting [11], this molecule came in with a Replicate_1 of 5.455. Under setting [12], this molecule showed a Replicate_2 of 3.207.

For the molecule `CN1C[C@H](C(=O)N[C@]2(C)O[C@@]3(O)[C@@H]4CCCN4C(=O)[C@H](Cc4ccccc4)N3C2=O)C[C@@H]2c3cccc4[nH]cc(c34)C[C@H]21` [Dihydroergotamine methanesulfonate], the inhibition at 5 µM was 2.09% under setting [16] and 1.52% under setting [17]. Further, under setting [13], the “mean (LOPAC_screen_w_protease)” value turned out to be 1.805.

Take `CC(=O)c1c(O)c(C)c(O)c(Cc2c(O)c3c(c(C(=O)/C=C/c4ccccc4)c2O)OC(C)(C)C=C3)c1O` [Rottlerin]: the inhibition at 5 µM turned out to be 4.21% (read-out: Replicate_1), 5.11% (read-out: Replicate_2) and 4.66% (read-out: mean).

As for `CC1(C)C(=O)N(CCN2CCC(C(=O)c3ccc(F)cc3)CC2)c2ccccc21.Cl` [LY-310,762 hydrochloride], under setting [18], the “mean (LOPAC_screen_w_protease)” value is on record as 1.717. The “Replicate_1 (LOPAC_screen_w_protease)” value under setting [14] is 1.617. Further, the “Replicate_2 (LOPAC_screen_w_protease)” value under setting [15] was found to be 1.816.

As to `N#CC(C#N)=Cc1cc(O)c(O)c(O)c1` [Tyrphostin 25], the inhibition at 5 µM by setting is: (sheet LOPAC_screen_w_protease, primary screen at 5 µM, mean of two replicates, read-out: mean (LOPAC screen with protease)) 8.52%; (sheet LOPAC_screen_w_protease, primary screen at 5 µM, replicate 1, read-out: Replicate_1 (LOPAC screen with protease)) 10.5%; (sheet LOPAC_screen_w_protease, primary screen at 5 µM, replicate 2, read-out: Replicate_2 (LOPAC screen with protease)) 6.57%.

Take `COc1cc2c(CCNC(C)=O)c[nH]c2cc1Cl` [6-Chloromelatonin]: the “mean (LOPAC_screen_w_protease)” value under setting [18] worked out at 1.65. Moreover, under setting [14], the “Replicate_1 (LOPAC_screen_w_protease)” value worked out at 0.5069. Moreover, under setting [15], the “Replicate_2 (LOPAC_screen_w_protease)” value amounted to 2.794.

With `CC[C@H](NC(=O)c1c(C)c(-c2ccccc2)nc2ccccc12)c1ccccc1` [SB 222200], the inhibition at 5 µM is, setting by setting: under setting [16], 1.71%; under setting [17], 1.28%. Further, the “mean (LOPAC_screen_w_protease)” value under setting [18] stood at 1.495.

Under setting [19], `CCNC(=O)[C@H]1O[C@@H](n2cnc3c(NCc4ccccc4)ncnc32)[C@H](O)[C@@H]1O` [N6-Benzyl-5'-N-ethylcarboxamidoadenosine] registered a mean of 1.239. In addition, the Replicate_1 under setting [20] is recorded as -0.1675. Under setting [21], this molecule showed a Replicate_2 of 2.645.

For the molecule `CC(C)(CO)Cc1cc(C(C)(C)C)c(O)c(C(C)(C)C)c1` [CGP-7930], under setting [19], the mean stood at 1.164. Under setting [20], this molecule returned a Replicate_1 of 0.8273. Moreover, under setting [21], the Replicate_2 is given as 1.5.
